From ChEMBL document CHEMBL4402590, “Small-Molecule Antagonist Targeting Exportin-1 via Rational Structure-Based Discovery” (J Med Chem, 2020) come the findings set out here.

Activity calls are given as the source filed them. The rule behind the calls is not given here.

The assay has as its target Exportin-1 (Homo sapiens, UniProt O14980). Nature of the assay: Reversible inhibition of CRM1 in human 293T cells assessed as increase in translocation of NES-GFP to […] at 4 uM incubated for 2 hrs by confocal laser scanning microscopy. It counts as cell-based.

Chain of Exportin-1 (O14980 whole entry): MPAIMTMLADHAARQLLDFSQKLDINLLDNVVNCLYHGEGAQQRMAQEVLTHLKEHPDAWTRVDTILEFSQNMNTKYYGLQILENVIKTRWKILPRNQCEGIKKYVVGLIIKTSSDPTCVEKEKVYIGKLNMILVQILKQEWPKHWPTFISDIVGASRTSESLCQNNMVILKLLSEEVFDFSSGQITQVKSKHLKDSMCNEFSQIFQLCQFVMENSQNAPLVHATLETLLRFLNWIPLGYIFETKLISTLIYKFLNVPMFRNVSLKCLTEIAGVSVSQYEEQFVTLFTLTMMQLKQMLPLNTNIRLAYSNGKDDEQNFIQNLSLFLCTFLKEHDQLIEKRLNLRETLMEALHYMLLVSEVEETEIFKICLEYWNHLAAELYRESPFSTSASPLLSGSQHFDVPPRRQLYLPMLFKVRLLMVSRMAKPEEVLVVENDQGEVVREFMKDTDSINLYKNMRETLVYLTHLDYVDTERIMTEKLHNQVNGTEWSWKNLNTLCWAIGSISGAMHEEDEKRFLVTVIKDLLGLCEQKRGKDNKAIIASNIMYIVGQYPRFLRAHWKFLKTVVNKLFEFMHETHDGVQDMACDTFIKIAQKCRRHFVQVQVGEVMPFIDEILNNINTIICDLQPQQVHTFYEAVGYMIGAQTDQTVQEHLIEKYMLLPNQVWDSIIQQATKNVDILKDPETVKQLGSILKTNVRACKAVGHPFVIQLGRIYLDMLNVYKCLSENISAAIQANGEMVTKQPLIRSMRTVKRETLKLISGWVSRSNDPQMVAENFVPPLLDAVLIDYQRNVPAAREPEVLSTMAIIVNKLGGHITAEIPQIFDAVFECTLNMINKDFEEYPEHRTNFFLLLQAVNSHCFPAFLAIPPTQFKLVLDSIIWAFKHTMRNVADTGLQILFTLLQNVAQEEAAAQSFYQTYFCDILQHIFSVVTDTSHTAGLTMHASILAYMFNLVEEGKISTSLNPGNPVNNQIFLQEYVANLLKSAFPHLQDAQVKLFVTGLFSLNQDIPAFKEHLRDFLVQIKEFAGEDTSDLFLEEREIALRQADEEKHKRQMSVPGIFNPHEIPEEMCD

On to `O=C(/C=C\n1cnc(-c2cc(C(F)(F)F)cc(C(F)(F)F)c2)n1)NNc1cnccn1`, for which the inhibition result is “inactive”.
